What was measured:
[1] = system: Hepatitis C virus; test: Antiviral activity against HCV genotype 1a H77 infected in human HuH7 cells assessed as inhibition of viral RNA replication after 3 days by renilla luciferase reporter gene assay in presence of 10% BSA; format: functional, organism-based, Hepacivirus hominis; conditions: genotype 1a H77, Huh-7, 72 h
[2] = system: Hepatitis C virus; test: Ratio of EC50 for HCV genotype 1a H77 infected in human HuH7 cells in presence of human serum to EC50 for HCV genotype 1a H77 infected in human HuH7 cells; format: functional, Hepacivirus hominis, Huh-7
[3] = system: Hepatitis C virus; test: Antiviral activity against HCV genotype 1a H77 infected in human HuH7 cells assessed as inhibition of viral RNA replication after 3 days by renilla luciferase reporter gene assay in presence of human serum; format: functional, organism-based, Hepacivirus hominis; conditions: genotype 1a H77, Huh-7, 72 h
[4] = system: Hepatitis C virus; test: Ratio of EC50 for HCV genotype 1a H77 infected in human HuH7 cells in presence of 10% BSA to EC50 for HCV genotype 1a H77 infected in human HuH7 cells; format: functional, Hepacivirus hominis, Huh-7
[5] = system: Hepatitis C virus; test: Antiviral activity against HCV genotype 1b Con1 infected in human HuH7 cells assessed as inhibition of viral RNA replication after 3 days by renilla luciferase reporter gene assay; format: functional, organism-based, Hepacivirus hominis; conditions: isolate Con1, Huh-7, 72 h
[6] = system: Hepatitis C virus; test: Antiviral activity against HCV genotype 1a H77 infected in human HuH7 cells assessed as inhibition of viral RNA replication after 3 days by renilla luciferase reporter gene assay; format: functional, organism-based, Hepacivirus hominis; conditions: genotype 1a H77, Huh-7, 72 h

EC50 [1]: 0.784 nM
EC50 [3]: 0.784 nM
EC50 [5]: 0.004 nM
EC50 [6]: 0.056 nM
SMILES: COC(=O)N[C@H](C(=O)N1CCC[C@H]1c1ncc(-c2ccc3c(c2)C(F)(F)c2cc(-c4ccc5nc([C@@H]6[C@H]7CC[C@H](C7)N6C(=O)[C@@H](NC(=O)OC)C(C)C)[nH]c5c4)ccc2-3)[nH]1)C(C)C
Ratio EC50 [2]: 14
Ratio EC50 [4]: 14
